Source: ChEMBL document CHEMBL4811299, “Discovery of a novel class of heteroaryl-pyrrolidinones as positive allosteric modulators of the muscarinic acetylcholine receptor M1” (Bioorg Med Chem Lett, 2021)

Key:
[1] = target: T1, Muscarinic acetylcholine receptor M1 (Homo sapiens) (UniProt P11229); assay: Positive allosteric modulation of human muscarinic acetylcholine M1 receptor expressed in CHO cells in presence of acetylcholine at EC20 concentration by calcium mobilization assay relative to acetylcholine; format: functional, cell-based; conditions: time 3.5 min
T1 sequence (whole entry): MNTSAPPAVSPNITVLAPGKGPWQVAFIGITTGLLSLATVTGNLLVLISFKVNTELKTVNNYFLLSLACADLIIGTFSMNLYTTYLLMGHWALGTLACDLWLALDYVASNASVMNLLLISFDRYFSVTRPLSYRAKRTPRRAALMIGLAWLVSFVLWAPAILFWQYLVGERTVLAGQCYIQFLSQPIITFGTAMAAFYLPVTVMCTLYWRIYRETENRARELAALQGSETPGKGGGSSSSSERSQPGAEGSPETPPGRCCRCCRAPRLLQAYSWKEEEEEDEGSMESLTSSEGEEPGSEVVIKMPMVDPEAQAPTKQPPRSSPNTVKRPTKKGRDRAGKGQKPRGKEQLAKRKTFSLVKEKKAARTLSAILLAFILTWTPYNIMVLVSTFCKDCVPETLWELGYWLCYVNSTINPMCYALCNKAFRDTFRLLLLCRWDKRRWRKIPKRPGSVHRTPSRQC

[2] = target: T2, Muscarinic acetylcholine receptor M1 (Homo sapiens, UniProt P11229); assay: Positive allosteric modulation of human muscarinic acetylcholine M1 receptor expressed in CHO cells in presence of acetylcholine at EC20 concentration by calcium mobilization assay; format: functional, cell-based
T2 sequence (P11229 whole entry): T1 sequence (whole entry)

[3] = target: T3, Muscarinic acetylcholine receptor M2 (Homo sapiens, UniProt P08172); assay: Positive allosteric modulation of human muscarinic acetylcholine M2/Gqi5 receptor expressed in CHO cells in presence of acetylcholine at EC20 concentration by calcium mobilization assay; format: functional, cell-based
T3 sequence (P08172 whole entry): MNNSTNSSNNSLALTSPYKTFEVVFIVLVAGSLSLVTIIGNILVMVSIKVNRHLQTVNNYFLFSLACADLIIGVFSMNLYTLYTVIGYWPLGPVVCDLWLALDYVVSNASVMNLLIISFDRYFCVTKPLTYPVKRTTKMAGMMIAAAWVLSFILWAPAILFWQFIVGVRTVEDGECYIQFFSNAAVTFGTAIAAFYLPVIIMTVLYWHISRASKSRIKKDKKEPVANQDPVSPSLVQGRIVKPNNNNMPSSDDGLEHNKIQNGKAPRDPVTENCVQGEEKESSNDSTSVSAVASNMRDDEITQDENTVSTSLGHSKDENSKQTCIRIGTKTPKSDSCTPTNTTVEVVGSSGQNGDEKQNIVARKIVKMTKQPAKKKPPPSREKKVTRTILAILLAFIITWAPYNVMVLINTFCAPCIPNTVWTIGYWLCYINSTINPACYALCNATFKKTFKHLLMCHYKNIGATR

[4] = target: Muscarinic acetylcholine receptor M3 (Homo sapiens, UniProt P20309); assay: Positive allosteric modulation of human muscarinic acetylcholine M3 receptor expressed in CHO cells in presence of acetylcholine at EC20 concentration by calcium mobilization assay; format: functional, cell-based
[5] = target: T4, Muscarinic acetylcholine receptor M5 (Homo sapiens, UniProt P08912); assay: Positive allosteric modulation of human muscarinic acetylcholine M5 receptor expressed in CHO cells in presence of acetylcholine at EC20 concentration by calcium mobilization assay; format: functional, cell-based
T4 sequence (P08912 whole entry): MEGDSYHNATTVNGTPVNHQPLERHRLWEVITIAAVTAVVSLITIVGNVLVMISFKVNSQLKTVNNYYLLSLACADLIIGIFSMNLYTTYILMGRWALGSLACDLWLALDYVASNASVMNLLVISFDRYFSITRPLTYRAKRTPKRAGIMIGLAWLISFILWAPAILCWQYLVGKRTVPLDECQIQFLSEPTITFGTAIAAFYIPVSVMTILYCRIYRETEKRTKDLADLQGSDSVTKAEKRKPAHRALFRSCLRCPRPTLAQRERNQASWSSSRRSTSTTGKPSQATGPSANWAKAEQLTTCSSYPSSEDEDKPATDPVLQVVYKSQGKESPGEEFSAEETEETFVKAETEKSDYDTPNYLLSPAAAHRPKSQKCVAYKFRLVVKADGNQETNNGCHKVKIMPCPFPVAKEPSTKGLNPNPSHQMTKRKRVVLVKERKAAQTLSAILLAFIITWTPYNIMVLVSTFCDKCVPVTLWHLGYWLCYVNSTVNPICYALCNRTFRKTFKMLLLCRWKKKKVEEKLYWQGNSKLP

[6] = Brain to plasma partition coefficient, Kp of the compound in rat at 0.20 mg/kg, iv administered as cassette dose measured at 0.25 hrs; format: ADME, organism-based; conditions: 0.2 mg/kg
[7] = Unbound brain-to-plasma concentration ratio of the compound in rat at 0.20 mg/kg, iv administered as cassette dose measured at 0.25 hrs; format: ADME, organism-based; conditions: 0.2 mg/kg
[8] = Protein binding in rat plasma assessed as unbound fraction measured after 4 hrs by equilibrium dialysis assay; format: ADME, cell-free
[9] = Protein binding in rat brain assessed as unbound fraction measured after 4 hrs by equilibrium dialysis assay; format: ADME, tissue-based
[10] = Protein binding in human plasma assessed as unbound fraction measured after 4 hrs by equilibrium dialysis assay; format: ADME, cell-free
[11] = filed as positive allosteric modulator

Sequence of Muscarinic acetylcholine receptor M3 (P20309 whole entry): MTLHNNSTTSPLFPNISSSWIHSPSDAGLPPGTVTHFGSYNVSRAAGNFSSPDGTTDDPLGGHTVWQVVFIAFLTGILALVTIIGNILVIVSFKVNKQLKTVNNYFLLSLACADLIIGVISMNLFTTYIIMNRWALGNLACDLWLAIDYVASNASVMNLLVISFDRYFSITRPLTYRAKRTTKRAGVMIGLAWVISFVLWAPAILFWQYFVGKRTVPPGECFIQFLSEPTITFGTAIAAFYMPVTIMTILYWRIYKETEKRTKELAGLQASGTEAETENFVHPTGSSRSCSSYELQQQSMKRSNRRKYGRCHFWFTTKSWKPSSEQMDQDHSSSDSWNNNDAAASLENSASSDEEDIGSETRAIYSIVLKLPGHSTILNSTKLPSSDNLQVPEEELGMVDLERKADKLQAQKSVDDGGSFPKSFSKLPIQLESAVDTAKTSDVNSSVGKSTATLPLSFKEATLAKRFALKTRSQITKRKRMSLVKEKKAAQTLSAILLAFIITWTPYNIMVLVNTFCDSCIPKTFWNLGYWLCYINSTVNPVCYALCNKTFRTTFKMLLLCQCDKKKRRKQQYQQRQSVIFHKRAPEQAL

Structure (SMILES): Cn1cc2cc(-c3cc(F)c(CN4Cc5occc5C4=O)c(F)c3)ccc2n1
- Emax [1, 11]: 45%

Structure (SMILES): Cn1cnc2ccc(-c3cc(F)c(CN4Cc5sccc5C4=O)c(F)c3)cc21
- Emax [1, 11]: 60%

Structure (SMILES): Cn1cc2c(-c3cc(F)c(CN4Cc5ccn(CC6CCCO6)c5C4=O)c(F)c3)cccc2n1 (configuration not stated)
- Emax [1, 11]: 58%

Structure (SMILES): Cc1[nH]cc2c1C(=O)N(Cc1c(F)cc(-c3cccc4nn(C)cc34)cc1F)C2
- EC50 [2]: > 10 µM

Structure (SMILES): Cn1cc2c(-c3ccc(CN4Cc5sccc5C4=O)c(F)c3)cccc2n1
- Emax [1, 11]: 67%

Structure (SMILES): Cn1cc2cccc(-c3cc(F)c(CN4Cc5cnn(CC6CCCO6)c5C4=O)c(F)c3)c2n1 (configuration not stated)
- Emax [1, 11]: 66%

Structure (SMILES): Cn1cc(-c2ccc(CN3Cc4ccsc4C3=O)c(F)c2)cn1
- Emax [1, 11]: 67%

Structure (SMILES): Cn1cc2c(-c3cc(F)c(CN4Cc5ncoc5C4=O)c(F)c3)cccc2n1
- EC50 [2]: > 10 µM

Structure (SMILES): Cn1cc2cc(-c3ccc(CN4Cc5sccc5C4=O)c(F)c3)ccc2n1
- Emax [1, 11]: 51%

Structure (SMILES): Cn1cc2c(-c3cc(F)c(CN4Cc5sccc5C4=O)c(F)c3)cccc2n1
- EC50 [2]: 1.92 µM
- Emax [1, 11]: 75%

Structure (SMILES): Cn1cc2cc(-c3ccc(CN4Cc5ncsc5C4=O)c(F)c3)ccc2n1
- EC50 [2]: 2 µM
- Emax [1, 11]: 60%
- EC50 [3]: > 10 µM
- EC50 [4]: > 10 µM
- EC50 [5]: > 10 µM
- Kp [6]: 2.1
- K(p,uu,brain) [7]: 2.2
- Fu [8]: 0.04
- Fu [9]: 0.042
- Fu [10]: 0.05

Structure (SMILES): Cn1cc2c(-c3cc(F)c(CN4Cc5ocnc5C4=O)c(F)c3)cccc2n1
- EC50 [2]: > 10 µM

Structure (SMILES): Cn1cc2c(-c3cc(F)c(CN4Cc5nc[nH]c5C4=O)c(F)c3)cccc2n1
- EC50 [2]: > 10 µM

Structure (SMILES): Cn1cc2c(-c3cc(F)c(CN4Cc5cnn(CCO)c5C4=O)c(F)c3)cccc2n1
- EC50 [2]: 1.51 µM
- Emax [1, 11]: 84%

Structure (SMILES): Cn1cc2c(-c3cc(F)c(CN4Cc5cn(CCN6CCCC6)nc5C4=O)c(F)c3)cccc2n1
- Emax [1, 11]: 57%

Structure (SMILES): Cn1cc2c(-c3cc(F)c(CN4Cc5cnn(CC6CCCO6)c5C4=O)c(F)c3)cccc2n1 (configuration not stated)
- EC50 [2]: 1.12 µM
- Emax [1, 11]: 85%
- EC50 [3]: > 10 µM
- EC50 [4]: > 10 µM
- EC50 [5]: > 10 µM
- Fu [8]: 0.027
- Fu [9]: 0.019
- Fu [10]: 0.025

Structure (SMILES): Cn1cc2c(-c3cc(F)c(CN4Cc5ccn(CCCO)c5C4=O)c(F)c3)cccc2n1
- Emax [1, 11]: 67%

Structure (SMILES): Cn1cc2cc(-c3cc(F)c(CN4Cc5sccc5C4=O)c(F)c3)ccc2n1
- Emax [1, 11]: 59%

Structure (SMILES): O=C1c2scnc2CN1Cc1c(F)cc(-c2ccc3ncccc3c2)cc1F
- EC50 [2]: 8 µM
- Emax [1]: 30%

Structure (SMILES): Cn1cc2cc(-c3cc(F)c(CN4Cc5cnn(CC6CCCO6)c5C4=O)c(F)c3)ccc2n1 (configuration not stated)
- EC50 [2]: 1.66 µM
- Emax [1, 11]: 79%

Structure (SMILES): Cn1cc2c(-c3cc(F)c(CN4Cc5cnn(CCN6CCCC6)c5C4=O)c(F)c3)cccc2n1
- EC50 [2]: 0.739 µM
- Emax [1, 11]: 87%

Structure (SMILES): Cc1cc(-c2cc(F)c(CN3Cc4cnn(CC5CCCO5)c4C3=O)c(F)c2)ccn1 (configuration not stated)
- Emax [1, 11]: 65%

Structure (SMILES): COCCn1ncc2c1C(=O)N(Cc1c(F)cc(-c3cccc4nn(C)cc34)cc1F)C2
- EC50 [2]: 3.93 µM
- Emax [1, 11]: 84%

Structure (SMILES): Cn1cc2cc(-c3cc(F)c(CN4Cc5ccsc5C4=O)c(F)c3)ccc2n1
- Emax [1, 11]: 40%

Structure (SMILES): Cc1nn(C)cc1-c1cc(F)c(CN2Cc3cnn(CC4CCCO4)c3C2=O)c(F)c1 (configuration not stated)
- Emax [1, 11]: 77%

Structure (SMILES): Cn1cc2c(-c3cc(F)c(CN4Cc5ccsc5C4=O)c(F)c3)cccc2n1
- EC50 [2]: 2.16 µM
- Emax [1, 11]: 66%

Structure (SMILES): Cn1cc2c(-c3cc(F)c(CN4Cc5cn(CC6CCCO6)nc5C4=O)c(F)c3)cccc2n1 (configuration not stated)
- EC50 [2]: 3.54 µM
- Emax [1, 11]: 61%

Structure (SMILES): Cn1cc2c(-c3cc(F)c(CN4Cc5ccn(CCN6CCCC6)c5C4=O)c(F)c3)cccc2n1
- Emax [1, 11]: 56%
